Assay results taken from US8933230B2, “Phosphorus-containing group-substituted quinoline, its preparation process, medical composition containing the compounds and application” (priority 2011, dated 2015).

Key:
Test in all cases: KinomeScan kinase panel
Format in all cases: binding
[1] = target: T1, ABL1(E255K)-phosphorylated (Homo sapiens, UniProt P00519, E255K)
T1 construct: purchased DiscoveRx Corporation (KinomeScan)
In short: (§1)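 KinomeScan, 442 kinases incl. mutants; cpd 1000 nM; single-concentration inhibition.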

[2] = target: T2, ABL1(F317L)-nonphosphorylated (Homo sapiens, UniProt P00519, F317L)
T2 construct: purchased DiscoveRx Corporation (KinomeScan)
In short: as §1

[3] = target: T3, ABL1(T315I)-nonphosphorylated (Homo sapiens, UniProt P00519, T315I)
T3 construct: purchased DiscoveRx Corporation (KinomeScan)
In short: as §1

ADCK3 = target: T4, ADCK3 (Homo sapiens, UniProt Q8NI60)
T4 construct: purchased DiscoveRx Corporation (KinomeScan)
In short: as §1

ADCK4 = target: T5, ADCK4 (Homo sapiens, UniProt Q96D53)
T5 construct: purchased DiscoveRx Corporation (KinomeScan)
In short: as §1

ANKK1 = target: T6, ANKK1 (Homo sapiens, UniProt Q8NFD2)
T6 construct: purchased DiscoveRx Corporation (KinomeScan)
In short: as §1

ASK2 = target: T7, ASK2 (Homo sapiens, UniProt O95382)
T7 construct: purchased DiscoveRx Corporation (KinomeScan)
In short: as §1

CDK2 = target: T8, CDK2 (Homo sapiens, UniProt P24941)
T8 construct: purchased DiscoveRx Corporation (KinomeScan)
In short: as §1

CDKL2 = target: T9, CDKL2 (Homo sapiens, UniProt Q92772)
T9 construct: purchased DiscoveRx Corporation (KinomeScan)
In short: as §1

DAPK1 = target: T10, DAPK1 (Homo sapiens, UniProt P53355)
T10 construct: purchased DiscoveRx Corporation (KinomeScan)
In short: as §1

EPHA8 = target: T11, EPHA8 (Homo sapiens, UniProt P29322)
T11 construct: purchased DiscoveRx Corporation (KinomeScan)
T11 sequence (P29322 28-1005): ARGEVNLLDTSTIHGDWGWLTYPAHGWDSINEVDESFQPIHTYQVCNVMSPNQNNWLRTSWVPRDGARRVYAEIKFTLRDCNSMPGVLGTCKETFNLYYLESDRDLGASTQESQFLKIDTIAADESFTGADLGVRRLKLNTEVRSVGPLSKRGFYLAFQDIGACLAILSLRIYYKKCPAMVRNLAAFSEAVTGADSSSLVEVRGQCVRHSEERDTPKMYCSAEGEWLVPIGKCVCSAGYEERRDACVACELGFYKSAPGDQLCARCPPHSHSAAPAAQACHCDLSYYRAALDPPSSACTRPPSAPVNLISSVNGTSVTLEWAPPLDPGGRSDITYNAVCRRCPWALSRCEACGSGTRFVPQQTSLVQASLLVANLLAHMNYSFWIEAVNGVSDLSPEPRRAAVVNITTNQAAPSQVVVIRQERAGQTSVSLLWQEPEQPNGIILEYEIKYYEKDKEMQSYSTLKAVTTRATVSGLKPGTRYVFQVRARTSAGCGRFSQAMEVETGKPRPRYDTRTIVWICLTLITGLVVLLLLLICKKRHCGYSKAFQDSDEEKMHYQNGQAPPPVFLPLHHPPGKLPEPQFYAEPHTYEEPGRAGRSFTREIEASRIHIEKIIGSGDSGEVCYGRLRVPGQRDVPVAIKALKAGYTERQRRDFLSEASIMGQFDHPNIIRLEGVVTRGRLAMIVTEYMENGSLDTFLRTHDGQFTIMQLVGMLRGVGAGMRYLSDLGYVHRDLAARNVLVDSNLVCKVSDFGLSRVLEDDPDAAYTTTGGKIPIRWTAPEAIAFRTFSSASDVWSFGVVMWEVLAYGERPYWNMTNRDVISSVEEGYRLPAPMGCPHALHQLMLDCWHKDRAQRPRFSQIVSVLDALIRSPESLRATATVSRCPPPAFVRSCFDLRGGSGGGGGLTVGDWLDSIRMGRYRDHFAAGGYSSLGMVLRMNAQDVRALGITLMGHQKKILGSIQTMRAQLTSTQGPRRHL
In short: as §1

EPHB1 = target: T12, EPHB1 (Homo sapiens, UniProt P54762)
T12 construct: purchased DiscoveRx Corporation (KinomeScan)
In short: as §1

EPHB3 = target: T13, EPHB3 (Homo sapiens, UniProt P54753)
T13 construct: purchased DiscoveRx Corporation (KinomeScan)
In short: as §1

ERK5 = target: T14, ERK5 (Homo sapiens, UniProt Q13164)
T14 construct: purchased DiscoveRx Corporation (KinomeScan)
In short: as §1

ERN1 = target: T15, ERN1 (Homo sapiens, UniProt O75460)
T15 construct: purchased DiscoveRx Corporation (KinomeScan)
In short: as §1

FGFR4 = target: T16, FGFR4 (Homo sapiens, UniProt P22455)
T16 construct: purchased DiscoveRx Corporation (KinomeScan)
In short: as §1

FLT3(ITD) = system: FLT3(ITD)
In short: as §1

JNK3 = target: T17, JNK3 (Homo sapiens, UniProt P53779)
T17 construct: purchased DiscoveRx Corporation (KinomeScan)
In short: as §1

MARK3 = target: T18, MARK3 (Homo sapiens, UniProt P27448)
T18 construct: purchased DiscoveRx Corporation (KinomeScan)
T18 sequence (P27448 whole entry): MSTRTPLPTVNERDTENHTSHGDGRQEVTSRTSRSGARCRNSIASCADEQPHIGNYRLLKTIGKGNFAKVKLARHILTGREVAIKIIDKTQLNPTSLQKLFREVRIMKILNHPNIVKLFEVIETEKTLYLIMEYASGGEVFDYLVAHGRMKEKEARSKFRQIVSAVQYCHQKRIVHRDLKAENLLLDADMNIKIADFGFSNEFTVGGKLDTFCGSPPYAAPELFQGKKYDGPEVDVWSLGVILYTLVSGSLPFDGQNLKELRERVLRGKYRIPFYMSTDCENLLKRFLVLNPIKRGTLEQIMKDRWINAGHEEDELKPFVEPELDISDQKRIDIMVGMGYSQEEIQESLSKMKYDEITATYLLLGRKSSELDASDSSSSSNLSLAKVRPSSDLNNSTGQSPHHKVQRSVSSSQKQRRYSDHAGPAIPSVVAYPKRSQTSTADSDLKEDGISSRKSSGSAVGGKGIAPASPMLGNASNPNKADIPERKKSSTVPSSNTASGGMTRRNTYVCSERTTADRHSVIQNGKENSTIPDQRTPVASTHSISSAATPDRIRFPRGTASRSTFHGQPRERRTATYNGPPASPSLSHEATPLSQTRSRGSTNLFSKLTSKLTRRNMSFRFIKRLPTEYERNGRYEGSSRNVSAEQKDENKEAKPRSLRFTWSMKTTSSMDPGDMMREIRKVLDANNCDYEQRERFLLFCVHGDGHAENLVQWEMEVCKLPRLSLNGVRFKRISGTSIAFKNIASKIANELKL
In short: as §1

MARK4 = target: T19, MARK4 (Homo sapiens, UniProt Q96L34)
T19 construct: purchased DiscoveRx Corporation (KinomeScan)
In short: as §1

MEK1 = target: T20, MEK1 (Homo sapiens, UniProt Q02750)
T20 construct: purchased DiscoveRx Corporation (KinomeScan)
In short: as §1

MST4 = target: T21, MST4 (Homo sapiens, UniProt Q9P289)
T21 construct: purchased DiscoveRx Corporation (KinomeScan)
In short: as §1

NDR2 = target: T22, NDR2 (Homo sapiens, UniProt Q9Y2H1)
T22 construct: purchased DiscoveRx Corporation (KinomeScan)
T22 sequence (Q9Y2H1 whole entry): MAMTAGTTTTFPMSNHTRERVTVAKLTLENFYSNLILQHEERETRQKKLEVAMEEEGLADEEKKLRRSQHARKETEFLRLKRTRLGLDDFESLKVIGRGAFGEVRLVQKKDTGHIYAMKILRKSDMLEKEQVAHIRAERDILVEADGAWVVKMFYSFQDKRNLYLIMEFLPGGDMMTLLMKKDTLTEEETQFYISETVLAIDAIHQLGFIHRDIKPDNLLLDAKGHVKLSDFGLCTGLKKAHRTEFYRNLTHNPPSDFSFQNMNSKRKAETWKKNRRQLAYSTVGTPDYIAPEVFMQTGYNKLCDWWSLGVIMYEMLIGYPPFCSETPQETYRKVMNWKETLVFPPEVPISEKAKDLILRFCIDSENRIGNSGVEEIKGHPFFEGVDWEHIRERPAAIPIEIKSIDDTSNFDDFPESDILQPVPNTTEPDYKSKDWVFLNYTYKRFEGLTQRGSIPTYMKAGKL
In short: as §1

NEK9 = target: T23, NEK9 (Homo sapiens, UniProt Q8TD19)
T23 construct: purchased DiscoveRx Corporation (KinomeScan panel)
In short: as §1

P38-gamma = target: T24, P38-gamma (Homo sapiens, UniProt P53778)
T24 construct: purchased DiscoveRx Corporation (KinomeScan panel)
T24 sequence (P53778 whole entry): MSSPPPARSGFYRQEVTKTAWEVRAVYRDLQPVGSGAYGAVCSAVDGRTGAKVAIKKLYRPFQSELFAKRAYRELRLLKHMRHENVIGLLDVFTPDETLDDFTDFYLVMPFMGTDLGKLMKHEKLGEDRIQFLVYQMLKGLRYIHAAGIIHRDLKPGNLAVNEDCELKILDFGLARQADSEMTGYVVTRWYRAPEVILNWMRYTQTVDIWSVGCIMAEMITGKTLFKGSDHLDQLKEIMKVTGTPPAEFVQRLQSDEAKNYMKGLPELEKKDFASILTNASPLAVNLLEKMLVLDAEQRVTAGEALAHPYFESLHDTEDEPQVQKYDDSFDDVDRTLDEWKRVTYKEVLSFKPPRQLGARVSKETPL
In short: as §1

PAK2 = target: T25, PAK2 (Homo sapiens, UniProt Q13177)
T25 construct: purchased DiscoveRx Corporation (KinomeScan panel)
In short: as §1

PCTK1 = target: T26, PCTK1 (Homo sapiens, UniProt Q00536)
T26 construct: purchased DiscoveRx Corporation (KinomeScan panel)
In short: as §1

PCTK2 = target: T27, PCTK2 (Homo sapiens, UniProt Q00537)
T27 construct: purchased DiscoveRx Corporation (KinomeScan panel)
In short: as §1

PIK3CA (H1047Y) = target: T28, PIK3CA (H1047Y) (Homo sapiens, UniProt P42336, H1047Y)
T28 construct: purchased DiscoveRx Corporation (KinomeScan)
T28 sequence (P42336 whole entry H1047Y): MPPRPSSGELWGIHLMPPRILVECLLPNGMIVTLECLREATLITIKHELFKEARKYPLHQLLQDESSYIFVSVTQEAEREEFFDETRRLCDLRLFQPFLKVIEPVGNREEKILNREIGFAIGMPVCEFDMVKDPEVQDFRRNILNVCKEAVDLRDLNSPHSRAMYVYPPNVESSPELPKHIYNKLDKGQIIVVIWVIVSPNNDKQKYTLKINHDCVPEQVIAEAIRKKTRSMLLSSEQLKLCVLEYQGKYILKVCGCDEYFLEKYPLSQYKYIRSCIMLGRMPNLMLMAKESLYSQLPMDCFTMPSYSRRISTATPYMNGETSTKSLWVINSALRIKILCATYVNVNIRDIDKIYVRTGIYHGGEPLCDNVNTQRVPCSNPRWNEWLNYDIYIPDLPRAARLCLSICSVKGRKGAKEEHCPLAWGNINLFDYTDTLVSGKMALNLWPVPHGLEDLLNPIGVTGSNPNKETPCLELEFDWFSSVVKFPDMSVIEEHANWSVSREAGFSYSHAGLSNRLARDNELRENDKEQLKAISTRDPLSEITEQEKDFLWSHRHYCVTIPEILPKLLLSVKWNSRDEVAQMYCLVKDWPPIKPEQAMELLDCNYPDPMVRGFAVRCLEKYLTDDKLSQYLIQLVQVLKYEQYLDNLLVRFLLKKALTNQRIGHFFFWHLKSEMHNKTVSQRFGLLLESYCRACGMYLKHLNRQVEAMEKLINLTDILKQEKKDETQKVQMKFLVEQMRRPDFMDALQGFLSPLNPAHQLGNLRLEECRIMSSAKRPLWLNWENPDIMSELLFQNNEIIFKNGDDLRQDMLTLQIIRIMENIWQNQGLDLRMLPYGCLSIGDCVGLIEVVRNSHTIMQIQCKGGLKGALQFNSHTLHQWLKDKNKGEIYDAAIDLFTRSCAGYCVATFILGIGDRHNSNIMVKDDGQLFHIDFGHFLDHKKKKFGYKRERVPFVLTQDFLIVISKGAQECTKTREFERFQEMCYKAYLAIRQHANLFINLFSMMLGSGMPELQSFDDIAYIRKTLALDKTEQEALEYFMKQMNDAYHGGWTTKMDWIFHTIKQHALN
In short: as §1

PRKD2 = target: T29, PRKD2 (Homo sapiens, UniProt Q9BZL6)
T29 construct: purchased DiscoveRx Corporation (KinomeScan)
In short: as §1

PRKX = target: T30, PRKX (Homo sapiens, UniProt P51817)
T30 construct: purchased DiscoveRx Corporation
T30 sequence (P51817 whole entry): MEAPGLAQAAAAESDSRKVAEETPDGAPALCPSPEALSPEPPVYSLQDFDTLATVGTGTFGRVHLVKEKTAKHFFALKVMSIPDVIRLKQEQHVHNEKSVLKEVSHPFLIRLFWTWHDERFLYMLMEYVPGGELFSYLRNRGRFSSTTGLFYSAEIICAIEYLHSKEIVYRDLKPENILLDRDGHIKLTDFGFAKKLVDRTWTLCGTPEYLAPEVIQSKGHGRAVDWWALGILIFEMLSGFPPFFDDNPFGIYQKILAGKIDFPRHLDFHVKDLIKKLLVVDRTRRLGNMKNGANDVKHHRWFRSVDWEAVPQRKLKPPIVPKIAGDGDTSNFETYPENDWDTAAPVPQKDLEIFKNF
In short: as §1

RET = target: T31, RET (Homo sapiens, UniProt P07949)
T31 construct: purchased DiscoveRx Corporation
T31 sequence (P07949 29-1114): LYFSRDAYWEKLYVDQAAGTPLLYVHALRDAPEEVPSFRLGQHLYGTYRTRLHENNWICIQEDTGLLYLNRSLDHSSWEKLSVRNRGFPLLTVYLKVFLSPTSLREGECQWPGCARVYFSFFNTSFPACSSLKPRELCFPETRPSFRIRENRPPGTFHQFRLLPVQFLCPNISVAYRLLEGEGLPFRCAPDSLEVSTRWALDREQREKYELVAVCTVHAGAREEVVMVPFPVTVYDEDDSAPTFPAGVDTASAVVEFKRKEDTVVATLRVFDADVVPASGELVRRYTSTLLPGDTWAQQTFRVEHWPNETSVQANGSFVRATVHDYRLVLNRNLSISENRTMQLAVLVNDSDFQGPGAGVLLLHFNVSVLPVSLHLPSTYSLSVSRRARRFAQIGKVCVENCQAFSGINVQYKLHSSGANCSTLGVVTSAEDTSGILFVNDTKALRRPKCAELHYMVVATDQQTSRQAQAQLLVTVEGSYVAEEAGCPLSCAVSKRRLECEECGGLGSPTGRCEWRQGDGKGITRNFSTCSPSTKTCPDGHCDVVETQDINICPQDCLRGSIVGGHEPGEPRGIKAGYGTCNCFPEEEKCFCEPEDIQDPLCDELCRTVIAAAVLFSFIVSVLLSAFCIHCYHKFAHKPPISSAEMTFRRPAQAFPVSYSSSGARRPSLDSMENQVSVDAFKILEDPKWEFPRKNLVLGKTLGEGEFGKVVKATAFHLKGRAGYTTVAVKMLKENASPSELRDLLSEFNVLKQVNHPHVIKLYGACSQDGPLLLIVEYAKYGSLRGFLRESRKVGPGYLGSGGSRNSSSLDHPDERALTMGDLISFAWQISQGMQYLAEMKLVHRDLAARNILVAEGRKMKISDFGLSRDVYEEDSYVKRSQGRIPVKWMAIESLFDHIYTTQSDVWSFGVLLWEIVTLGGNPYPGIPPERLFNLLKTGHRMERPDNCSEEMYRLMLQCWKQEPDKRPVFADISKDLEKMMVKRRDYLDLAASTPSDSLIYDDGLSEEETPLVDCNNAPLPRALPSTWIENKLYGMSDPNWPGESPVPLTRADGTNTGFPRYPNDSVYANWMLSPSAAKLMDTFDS
In short: as §1

ROCK2 = target: T32, ROCK2 (Homo sapiens, UniProt O75116)
T32 construct: purchased DiscoveRx Corporation
In short: as §1

SRPK2 = target: T33, SRPK2 (Homo sapiens, UniProt P78362)
T33 construct: purchased DiscoveRx Corporation (KinomeScan)
In short: as §1

STK35 = target: T34, STK35 (Homo sapiens, UniProt Q8TDR2)
T34 construct: purchased DiscoveRx Corporation (KinomeScan)
In short: as §1

TRKC = target: T35, TRKC (Homo sapiens, UniProt Q16288)
T35 construct: purchased DiscoveRx Corporation (KinomeScan)
In short: as §1

## CCOP(=O)(CN1CCC(COc2cc3nccc(Oc4ccc(NC(=O)C5(C(=O)Nc6ccc(F)cc6)CC5)cc4F)c3cc2OC)CC1)OCC [Example 10, N1-[4-[[7-[[1-(diethoxyphosphorylmethyl)-4-piperidinyl]methoxyl]-6-methoxyl-4-quinolyl]oxyl]-3-fluorophenyl]-N1′-(4-fluorophenyl)cyclopropane-1,1-dicarboxamide]
[1]
  % Ctrl@1000 nM: 63 % Ctrl
[2]
  % Ctrl@1000 nM: 10 % Ctrl
[3]
  % Ctrl@1000 nM: 3.8 % Ctrl
ADCK3
  % Ctrl@1000 nM: 67 % Ctrl
ADCK4
  % Ctrl@1000 nM: 100 % Ctrl
ANKK1
  % Ctrl@1000 nM: 100 % Ctrl
ASK2
  % Ctrl@1000 nM: 100 % Ctrl
CDK2
  % Ctrl@1000 nM: 100 % Ctrl
CDKL2
  % Ctrl@1000 nM: 100 % Ctrl
DAPK1
  % Ctrl@1000 nM: 100 % Ctrl
EPHA8
  % Ctrl@1000 nM: 0.15 % Ctrl
EPHB1
  % Ctrl@1000 nM: 4.6 % Ctrl
EPHB3
  % Ctrl@1000 nM: 36 % Ctrl
ERK5
  % Ctrl@1000 nM: 100 % Ctrl
ERN1
  % Ctrl@1000 nM: 81 % Ctrl
FGFR4
  % Ctrl@1000 nM: 100 % Ctrl
FLT3(ITD)
  % Ctrl@1000 nM: 2.8 % Ctrl
JNK3
  % Ctrl@1000 nM: 95 % Ctrl
MARK3
  % Ctrl@1000 nM: 100 % Ctrl
MARK4
  % Ctrl@1000 nM: 100 % Ctrl
MEK1
  % Ctrl@1000 nM: 24 % Ctrl
MST4
  % Ctrl@1000 nM: 80 % Ctrl
NDR2
  % Ctrl@1000 nM: 82 % Ctrl
NEK9
  % Ctrl@1000 nM: 66 % Ctrl
P38-gamma
  % Ctrl@1000 nM: 100 % Ctrl
PAK2
  % Ctrl@1000 nM: 54 % Ctrl
PCTK1
  % Ctrl@1000 nM: 100 % Ctrl
PCTK2
  % Ctrl@1000 nM: 100 % Ctrl
PIK3CA (H1047Y)
  % Ctrl@1000 nM: 63 % Ctrl
PRKD2
  % Ctrl@1000 nM: 100 % Ctrl
PRKX
  % Ctrl@1000 nM: 81 % Ctrl
RET
  % Ctrl@1000 nM: 0.1 % Ctrl
ROCK2
  % Ctrl@1000 nM: 100 % Ctrl
SRPK2
  % Ctrl@1000 nM: 100 % Ctrl
STK35
  % Ctrl@1000 nM: 82 % Ctrl
TRKC
  % Ctrl@1000 nM: 2.2 % Ctrl
